Read-outs that look alike come from different tables or passages of the source.
System: recombinant rabies virus 1088 strain expressing Gaussia Luciferase (GLuc) (1088/GLuc)
Format: cell-based

Structure (SMILES)	IC50 (read-out: Anti-rabies activity) [µM]	IC50 (read-out: IC50) [µM]
COc1ccc(CNC(=O)[C@@]23C[C@@H]4CN(CCC(C)C)[C@@H]([C@@H]4C=N2)[C@H]3Cc2ccccc2)cc1 (relative stereo) [IIF-329]	< 5	
COc1ccc(CNC(=O)[C@@]23C[C@@H]4CN(CC(C)C)[C@@H]([C@@H]4C=N2)[C@H]3CCc2ccccc2)cc1 (relative stereo) [IIF-332]	< 5	
CC(C)CC1C2CNC3(C(=O)NCCc4ccccc4)C(C2)CN(CC(N)=O)C13 (centres unmarked) [IB-86]	10 to 30	
NC(=O)CN1CC2CC3CNC2(C(=O)NCCc2ccccc2)C1C3Cc1ccccc1 (centres unmarked) [IB-87]	< 5	
CCCCCCNC(=O)C12NCC3CC1CN(CC(N)=O)C2C3CCC(C)C (centres unmarked) [IB-108]	10 to 30	
CCCCCCNC(=O)C12NCC3CC1CN(CC(N)=O)C2C3CCc1ccccc1 (centres unmarked) [IB-109]	10 to 30	
CCCCCCNC(=O)C12NCC3CC1CN(CC(N)=O)C2C3Cc1cccc2ccccc12 (centres unmarked) [IB-110]	< 5	
NC(=O)CN1CC2CC3CNC2(C(=O)NCc2ccccc2)C1C3CCc1ccccc1 (centres unmarked) [IB-130]	10 to 30	
CC(C)CNC(=O)C12NCC3CC1CN(Cc1ccc(O)cc1)C2C3CCCNC(=N)N (centres unmarked) [IB-203]	10 to 30	
N=C(N)NCCCC1C2CNC3(C(=O)NCc4ccc(F)cc4)C(C2)CN(Cc2ccc(O)cc2)C13 (centres unmarked) [IB-207]	10 to 30	
O=C(O)CCNC(=O)C12NCC3CC1CN(Cc1ccc(F)cc1)C2C3Cc1cccc2ccccc12 (centres unmarked) [IB-384]	10 to 30	
CC(C)CCN1CC2CC3CNC2(C(=O)NCc2ccc(F)cc2)C1C3CCC(=O)O (centres unmarked) [IB-386]	10 to 30	
O=C(O)CCC1C2CNC3(C(=O)NCc4cccc5ccccc45)C(C2)CN(CC2CCCCC2)C13 (centres unmarked) [IB-389]	10 to 30	
O=C(O)CCC1C2CNC3(C(=O)NCc4cccc5ccccc45)C(C2)CN(Cc2ccc(F)cc2)C13 (centres unmarked) [IB-390]	10 to 30	
CC(C)CC1C2CNC3(C(=O)NCc4cccc5ccccc45)C(C2)CN(CCC(=O)O)C13 (centres unmarked) [IB-392]	10 to 30	
O=C(O)CCN1CC2CC3CNC2(C(=O)NCc2ccc(F)cc2)C1C3Cc1ccccc1 (centres unmarked) [IB-394]	10 to 30	
CC(C)CCC1C2CNC3(C(=O)NCc4cccc5ccccc45)C(C2)CN(CCC(=O)O)C13 (centres unmarked) [IB-398]	10 to 30	
CC(C)CCC1C2CNC3(C(=O)NCc4ccc(F)cc4)C(C2)CN(CCC(=O)O)C13 (centres unmarked) [IB-399]	10 to 30	
CC(C)CCC1C2CNC3(C(=O)NCc4ccc(O)cc4)C(C2)CN(CCC(=O)O)C13 (centres unmarked) [IB-402]	10 to 30	
O=C(O)CCNC(=O)C12NCC3CC1CN(Cc1ccc(O)cc1)C2C3Cc1cccc2ccccc12 (centres unmarked) [IB-410]	10 to 30	
O=C(NCc1ccc(O)cc1)C12NCC3CC1CN(Cc1cccc4ccccc14)C2C3Cc1cccc2ccccc12 (centres unmarked) [IB-417]	10 to 30	

Structure (SMILES)	IC50 (read-out: Anti-rabies activity) [µM]	IC50 (read-out: IC50) [µM]
O=C(O)CCC1C2CNC3(C(=O)NCc4cccc5ccccc45)C(C2)CN(CCO)C13 (centres unmarked) [IB-425]	10 to 30	
CC(C)CCN1CC2CC3CNC2(C(=O)NCc2cccc4ccccc24)C1C3CO (centres unmarked) [IB-426]	< 5	
CCCCCCNC(=O)C12NCC3CC1CN(CCO)C2C3Cc1ccccc1 (centres unmarked) [IB-476]	< 5	
CCCCCCNC(=O)C12NCC3CC1CN(CCO)C2C3CC(C)C (centres unmarked) [IB-477]	< 5	
CCCCCCNC(=O)C12NCC3CC1CN(CCO)C2C3Cc1ccc(O)cc1 (centres unmarked) [IB-478]	10 to 30	
O=C(NCc1ccc(F)cc1)C12NCC3CC1CN(CCO)C2C3Cc1ccccc1 (centres unmarked) [IB-479]	10 to 30	
CC(C)CCN1CC2CC3CNC2(C(=O)NCc2ccc(F)cc2)C1C3Cc1ccc(O)cc1 (centres unmarked) [IB-481]	< 5	
O=C(NCCc1ccccc1)C12NCC3CC1CN(CC1CCCCC1)C2C3Cc1ccccc1 (centres unmarked) [IB-484]	< 5	
CCCCCCNC(=O)C12NCC3CC1CN(CCO)C2C3CCC(C)C (centres unmarked) [IB-490]	< 5	
O=C(NCc1ccc(F)cc1)C12NCC3CC1CN(CCO)C2C3CCc1ccccc1 (centres unmarked) [IB-492]	< 5	
CC(C)CC1C2CNC3(C(=O)NCCc4ccccc4)C(C2)CN(CC(C)C)C13 (centres unmarked) [IB-495]	< 5	
CC(C)CN1CC2CC3CNC2(C(=O)NCc2ccc(F)cc2)C1C3Cc1ccc(O)cc1 (centres unmarked) [IB-498]	< 5	
CC(C)CC1C2CNC3(C(=O)NCc4ccc(F)cc4)C(C2)CN(Cc2ccc(O)cc2)C13 (centres unmarked) [IB-499]	< 5	
CC(C)CCC1C2CNC3(C(=O)NC(C)C)C(C2)CN(Cc2ccc(O)cc2)C13 (centres unmarked) [IB-501]	< 5	
CC(C)NC(=O)C12NCC3CC1CN(Cc1ccc(O)cc1)C2C3Cc1cccc2ccccc12 (centres unmarked) [IB-502]	< 5	
CC(C)CCN1CC2CC3CNC2(C(=O)NCc2ccccc2)C1C3CCC(=O)O (centres unmarked) [IB-505]	10 to 30	
CC(C)CNC(=O)C12NCC3CC1CN(CCc1ccccc1)C2C3CCC(=O)O (centres unmarked) [IB-508]	10 to 30	
CC(C)CNC(=O)C12NCC3CC1CN(CC1CCCCC1)C2C3CCC(=O)O (centres unmarked) [IB-510]	10 to 30	
O=C(O)CCN1CC2CC3CNC2(C(=O)NCc2ccc(O)cc2)C1C3CCc1ccccc1 (centres unmarked) [IB-515]	10 to 30	
O=C(O)CCN1CC2CC3CNC2(C(=O)NCc2ccc(O)cc2)C1C3Cc1cccc2ccccc12 (centres unmarked) [IB-516]	10 to 30	
CC(C)CC1C2CNC3(C(=O)NCCC(N)=O)C(C2)CN(Cc2cccc4ccccc24)C13 (centres unmarked) [IB-520]	< 5	

Structure (SMILES)	IC50 (read-out: Anti-rabies activity) [µM]	IC50 (read-out: IC50) [µM]
NC(=O)CCNC(=O)C12NCC3CC1CN(Cc1cccc4ccccc14)C2C3Cc1ccc(O)cc1 (centres unmarked) [IB-521]	10 to 30	
NC(=O)CCNC(=O)C12NCC3CC1CN(CCc1ccccc1)C2C3Cc1ccccc1 (centres unmarked) [IB-707]	< 5	
CC(C)CC1C2CNC3(C(=O)NCCC(N)=O)C(C2)CN(CCc2ccccc2)C13 (centres unmarked) [IB-708]	< 5	
NC(=O)CCNC(=O)C12NCC3CC1CN(CC1CCCCC1)C2C3CCc1ccccc1 (centres unmarked) [IB-710]	< 5	
NC(=O)CCNC(=O)C12NCC3CC1CN(Cc1ccc(F)cc1)C2C3Cc1ccccc1 (centres unmarked) [IB-712]	< 5	
CC(C)CCNC(=O)C12NCC3CC1CN(CCO)C2C3Cc1ccccc1 (centres unmarked) [IB-714]	< 5	
CC(C)CC1C2CNC3(C(=O)NCCc4ccccc4)C(C2)CN(Cc2ccc(F)cc2)C13 (centres unmarked) [IB-725]	< 5	
CC(C)CCNC(=O)C12NCC3CC1CN(CCO)C2C3Cc1cccc2ccccc12 (centres unmarked) [IB-727]	< 5	
NC(=O)CCNC(=O)C12NCC3CC1CN(Cc1ccccc1)C2C3Cc1ccccc1 (centres unmarked) [IB-734]	10 to 30	
CC(C)CN1CC2CC3CNC2(C(=O)NCCC(N)=O)C1C3Cc1cccc2ccccc12 (centres unmarked) [IB-737]	10 to 30	
CC(C)CCNC(=O)C12NCC3CC1CN(Cc1ccc(O)cc1)C2C3CC(C)C (centres unmarked) [IB-739]	10 to 30	
NC(=O)CCNC(=O)C12NCC3CC1CN(Cc1ccc(O)cc1)C2C3Cc1cccc2ccccc12 (centres unmarked) [IB-743]	< 5	
CC(C)CCN1CC2CC3CNC2(C(=O)NCc2ccccc2)C1C3Cc1ccc(O)cc1 (centres unmarked) [IB-749]	10 to 30	
O=C(NCc1cccc2ccccc12)C12NCC3CC1CN(Cc1cccc4ccccc14)C2C3CCc1ccccc1 (centres unmarked) [IB-804]	< 5	
NC(=O)CCNC(=O)C12NCC3CC1CN(Cc1ccccc1)C2C3Cc1cccc2ccccc12 (centres unmarked) [IB-813]	< 5	
O=C(NCc1ccc(F)cc1)C12NCC3CC1CN(CCO)C2C3Cc1cccc2ccccc12 (centres unmarked) [IB-831]	< 5	
CC(C)CC1C2CNC3(C(=O)NCc4ccccc4)C(C2)CN(Cc2ccc(Cl)cc2)C13 (centres unmarked) [IB-864]	5 to 10	
CC(C)CC1C2CNC3(C(=O)NCc4ccccc4)C(C2)CN(Cc2cccc(Cl)c2)C13 (centres unmarked) [IB-865]	5 to 10	
COc1ccc(CN2CC3CC4CNC3(C(=O)NCc3ccccc3)C2C4CC(C)C)cc1 (centres unmarked) [IB-866]	5 to 10	
Cc1ccc(CN2CC3CC4CNC3(C(=O)NCc3ccccc3)C2C4CC(C)C)cc1 (centres unmarked) [IB-867]	5 to 10	
CC(C)CCNC(=O)C12NCC3CC1CN(CC(C)C)C2C3Cc1ccccc1 (centres unmarked) [IB-870]	10 to 30	

Structure (SMILES)	IC50 (read-out: Anti-rabies activity) [µM]	IC50 (read-out: IC50) [µM]
CC(C)CC1C2CNC3(C(=O)NCc4ccc(Cl)cc4)C(C2)CN(CC(C)C)C13 (centres unmarked) [IB-871]	10 to 30	
CC(C)CC1C2CNC3(C(=O)NCc4ccccc4)C(C2)CN(Cc2ccc(N(C)C)cc2)C13 (centres unmarked) [IB-873]	5 to 10	
CC(C)CC1C2CNC3(C(=O)NCc4ccccc4)C(C2)CN(Cc2ccc(C(C)(C)C)cc2)C13 (centres unmarked) [IB-874]	5 to 10	
CC(C)CCC1C2CNC3(C(=O)NCc4ccccc4)C(C2)CN(CC(C)C)C13 (centres unmarked) [IB-875]	10 to 30	
CC(C)CCN1CC2CC3CNC2(C(=O)NCc2ccccc2)C1C3CC(C)C (centres unmarked) [IB-876]	10 to 30	
CCOc1ccc(CN2CC3CC4CNC3(C(=O)NCc3ccccc3)C2C4CC(C)C)cc1 (centres unmarked) [IB-878]	10 to 30	
CC(C)CC1C2CNC3(C(=O)NCc4ccc5ccccc5c4)C(C2)CN(Cc2ccccc2)C13 (centres unmarked) [IB-879]	< 5	
CCN1CC2CC3CN(Cc4ccc(C)cc4)C(C2CC(C)C)C31C(=O)NCc1ccccc1 (centres unmarked) [IB-880]	< 5	
Cc1ccc(CN2CC3CC4CN(CC(C)C)C3(C(=O)NCc3ccccc3)C2C4CC(C)C)cc1 (centres unmarked) [IB-881]	< 5	
Cc1ccc(CN2CC3CC4CN(C(=O)CC(C)C)C3(C(=O)NCc3ccccc3)C2C4CC(C)C)cc1 (centres unmarked) [IB-883]	< 5	
COC(=O)N1CC2CC3CN(Cc4ccc(C)cc4)C(C2CC(C)C)C31C(=O)NCc1ccccc1 (centres unmarked) [IB-885]	5 to 10	
Cc1ccc(CN2CC3CC4CN(C(=O)OCC(C)C)C3(C(=O)NCc3ccccc3)C2C4CC(C)C)cc1 (centres unmarked) [IB-886]	5 to 10	
Cc1ccc(CN2CC3CC4CN(C(=O)OCc5ccccc5)C3(C(=O)NCc3ccccc3)C2C4CC(C)C)cc1 (centres unmarked) [IB-887]	5 to 10	
Cc1ccc(CN2CC3CC4CN(C(N)=O)C3(C(=O)NCc3ccccc3)C2C4CC(C)C)cc1 (centres unmarked) [IB-888]	10 to 30	
Cc1ccc(CN2CC3CC4CN(C(=O)NCc5ccccc5)C3(C(=O)NCc3ccccc3)C2C4CC(C)C)cc1 (centres unmarked) [IB-889]	5 to 10	
CC(C)CC1C2CNC3(C(=O)NCc4cccc(O)c4)C(C2)CN(Cc2ccc(N(C)C)cc2)C13 (centres unmarked) [IB-891]	10 to 30	
CC(C)CC1C2CNC3(C(=O)NCc4ccc(O)cc4)C(C2)CN(Cc2ccc(N(C)C)cc2)C13 (centres unmarked) [IB-892]	10 to 30	
CC(C)CC1C2C3CNC1(C(=O)NCc1ccccc1)CC3CN2Cc1ccccc1 (centres unmarked) [IF-7]	5 to 10	8.5
CC(C)CCN1CC2CC3(C(=O)NCc4ccccc4)NCC2C1C3Cc1ccccc1 (centres unmarked) [IF-9]	10 to 30	15.6
NC(=O)CN1CC2CC3(C(=O)NCCc4ccccc4)NCC2C1C3Cc1cccc2ccccc12 (centres unmarked) [IF-90]	10 to 30	
NC(=O)CN1CC2CC3(C(=O)NCc4cccc5ccccc45)NCC2C1C3Cc1cccc2ccccc12 (centres unmarked) [IF-91]	< 5	
